# Data as given in PubChem BioAssay AID1963433 (Molecular Pharmacology Branch, DTP, NCI, 2024).
# “And” between values parts separate entries of the source, which are not always exact repeats. Equal entries are not always repeated.
# Tested on: 772245-204-R-J1-PDC complex spheroid growth
# Experiment: Anticancer human tumor 772245-204-R-J1-PDC patient-derived rhabdomyosarcoma cell line growth inhibition [Asc]
# Conditions: for viability, T/C: stronger effect = lower value
# Outline: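 Concentration series start at each agent's clinical Cmax, or at 10 microM when none is established, and drop in half-log steps; agents are applied alone or together to complex spheroids built with HUVEC and hMSC.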
# [1] = curve of first compound, second compound 0.01 µM
# [2] = curve of first compound, second compound 0.0316 µM
# [3] = curve of first compound, second compound 0.1 µM
# [4] = curve of first compound, second compound 0.316 µM
# [5] = curve of first compound, second compound 1 µM
# [6] = second compound 0.1 µM, first compound 0.0316 µM
# [7] = second compound 0.1 µM, first compound 0.1 µM
# [8] = second compound 0.1 µM, first compound 0.316 µM
# [9] = second compound 0.1 µM, first compound 1 µM
# [10] = second compound 0.316 µM, first compound 0.0316 µM
# [11] = second compound 0.316 µM, first compound 0.1 µM
# [12] = second compound 0.316 µM, first compound 0.316 µM
# [13] = second compound 0.316 µM, first compound 1 µM
# [14] = second compound 1 µM, first compound 0.0316 µM
# [15] = second compound 1 µM, first compound 0.1 µM
# [16] = second compound 1 µM, first compound 0.316 µM
# [17] = second compound 1 µM, first compound 1 µM
# 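Note: compound exposure lasted seven days.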
# 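Throughout, for viability, T/C: 100% = DMSO vehicle control viability.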
smiles,measurement,setting,value
NC(=O)C(=Cn1cnc(-c2cc(C(F)(F)F)cc(C(F)(F)F)c2)n1)c1cncnc1 + CNC(C)C(=O)NC1CN(S(=O)(=O)c2cccc(S(=O)(=O)N3CCC4CCC(C(=O)NC(c5ccccc5)c5ccccc5)N4C(=O)C(NC(=O)C(C)NC)C3)c2)CCC2CCC(C(=O)NC(c3ccccc3)c3ccccc3)N2C1=O,IC50,[1],> 300 nM
same,IC50,[2],> 300 nM
same,IC50,[3],> 300 nM
same,IC50,[4],> 300 nM
same,IC50,[5],> 300 nM
same,"viability, T/C","second compound 0.01 µM, first compound 0.000949 µM",96.8%
same,"viability, T/C","second compound 0.01 µM, first compound 0.003 µM",107%
same,"viability, T/C","second compound 0.01 µM, first compound 0.00949 µM",100%
same,"viability, T/C","second compound 0.01 µM, first compound 0.03 µM",84.2%
same,"viability, T/C","second compound 0.01 µM, first compound 0.0949 µM",62.2%
same,"viability, T/C","second compound 0.01 µM, first compound 0.3 µM",68.5%
same,"viability, T/C","second compound 0.0316 µM, first compound 0.000949 µM",92.9%
same,"viability, T/C","second compound 0.0316 µM, first compound 0.003 µM",114%
same,"viability, T/C","second compound 0.0316 µM, first compound 0.00949 µM",100%
same,"viability, T/C","second compound 0.0316 µM, first compound 0.03 µM",77.2%
same,"viability, T/C","second compound 0.0316 µM, first compound 0.0949 µM",88.7%
same,"viability, T/C","second compound 0.0316 µM, first compound 0.3 µM",67.3%
same,"viability, T/C","second compound 0.1 µM, first compound 0.000949 µM",97.8%
same,"viability, T/C","second compound 0.1 µM, first compound 0.003 µM",98.9%
same,"viability, T/C","second compound 0.1 µM, first compound 0.00949 µM",91.9%
same,"viability, T/C","second compound 0.1 µM, first compound 0.03 µM",80.9%
same,"viability, T/C","second compound 0.1 µM, first compound 0.0949 µM",57.3%
same,"viability, T/C","second compound 0.1 µM, first compound 0.3 µM",71.7%
same,"viability, T/C","second compound 0.316 µM, first compound 0.000949 µM",95.3%
same,"viability, T/C","second compound 0.316 µM, first compound 0.003 µM",97.2%
same,"viability, T/C","second compound 0.316 µM, first compound 0.00949 µM",86.2%
same,"viability, T/C","second compound 0.316 µM, first compound 0.03 µM",77.8%
same,"viability, T/C","second compound 0.316 µM, first compound 0.0949 µM",62%
same,"viability, T/C","second compound 0.316 µM, first compound 0.3 µM",69.3%
same,"viability, T/C","second compound 1 µM, first compound 0.000949 µM",99.2%
same,"viability, T/C","second compound 1 µM, first compound 0.003 µM",97.2%
same,"viability, T/C","second compound 1 µM, first compound 0.00949 µM",94.4%
same,"viability, T/C","second compound 1 µM, first compound 0.03 µM",102%
same,"viability, T/C","second compound 1 µM, first compound 0.0949 µM",78.3%
same,"viability, T/C","second compound 1 µM, first compound 0.3 µM",56.7%
COc1c(OCCCN2CCOCC2)ccc2c3n(c(=NC(=O)c4cnc(N)nc4)nc12)CCN3 + Cc1c(S(C)(=O)=O)c(-c2cc(F)cc(N3CCN(c4ccc(NS(=O)(=O)c5ccc(NC(CCN6CCC(C(=O)OCCCP(=O)(O)O)CC6)CSc6ccccc6)c(S(=O)(=O)C(F)(F)F)c5)cc4)CC3)c2)c(-c2ccc(Cl)cc2)n1C(C)C,IC50,[3],57.5 nM
same,IC50,[4],48.5 nM
same,IC50,[5],21.2 nM
same,IC50,"curve of first compound, second compound 3.16 µM",< 3.16 nM
same,IC50,"curve of first compound, second compound 10 µM",< 3.16 nM
same,"viability, T/C","second compound 0.1 µM, first compound 0.00316 µM",82.5%
same,"viability, T/C","second compound 0.1 µM, first compound 0.01 µM",73.1%
same,"viability, T/C",[6],55.7%
same,"viability, T/C",[7],45.2%
same,"viability, T/C",[8],27.1%
same,"viability, T/C",[9],18.8%
same,"viability, T/C","second compound 0.316 µM, first compound 0.00316 µM",64.2%
same,"viability, T/C","second compound 0.316 µM, first compound 0.01 µM",74.5%
same,"viability, T/C",[10],55.4%
same,"viability, T/C",[11],36.8%
same,"viability, T/C",[12],18.4%
same,"viability, T/C",[13],11.6%
same,"viability, T/C","second compound 1 µM, first compound 0.00316 µM",65.4%
same,"viability, T/C","second compound 1 µM, first compound 0.01 µM",59.9%
same,"viability, T/C",[14],44.8%
same,"viability, T/C",[15],24.9%
same,"viability, T/C",[16],12.7%
same,"viability, T/C",[17],6.44%
same,"viability, T/C","second compound 3.16 µM, first compound 0.00316 µM",43.6%
same,"viability, T/C","second compound 3.16 µM, first compound 0.01 µM",56.1%
same,"viability, T/C","second compound 3.16 µM, first compound 0.0316 µM",29.4%
same,"viability, T/C","second compound 3.16 µM, first compound 0.1 µM",19.3%
same,"viability, T/C","second compound 3.16 µM, first compound 0.316 µM",11.5%
same,"viability, T/C","second compound 3.16 µM, first compound 1 µM",3.48%
same,"viability, T/C","second compound 10 µM, first compound 0.00316 µM",49.3%
same,"viability, T/C","second compound 10 µM, first compound 0.01 µM",41.9%
same,"viability, T/C","second compound 10 µM, first compound 0.0316 µM",39.1%
same,"viability, T/C","second compound 10 µM, first compound 0.1 µM",18.2%
same,"viability, T/C","second compound 10 µM, first compound 0.316 µM",6.81%
same,"viability, T/C","second compound 10 µM, first compound 1 µM",3.06%
O=C(c1cc(Cc2n[nH]c(=O)c3ccccc23)ccc1F)N1CCN(C(=O)C2CC2)CC1 + CNC(C)C(=O)NC1CN(S(=O)(=O)c2cccc(S(=O)(=O)N3CCC4CCC(C(=O)NC(c5ccccc5)c5ccccc5)N4C(=O)C(NC(=O)C(C)NC)C3)c2)CCC2CCC(C(=O)NC(c3ccccc3)c3ccccc3)N2C1=O,IC50,[1],> 10000 nM
same,IC50,[2],> 10000 nM
same,IC50,[3],> 10000 nM
same,IC50,[4],> 10000 nM
same,IC50,[5],> 10000 nM
same,"viability, T/C","second compound 0.01 µM, first compound 0.0316 µM",93.6%
same,"viability, T/C","second compound 0.01 µM, first compound 0.1 µM",99.7%
same,"viability, T/C","second compound 0.01 µM, first compound 0.316 µM",99%
same,"viability, T/C","second compound 0.01 µM, first compound 1 µM",98.5%
same,"viability, T/C","second compound 0.01 µM, first compound 3.16 µM",80.5%
same,"viability, T/C","second compound 0.01 µM, first compound 10 µM",81.1%
same,"viability, T/C","second compound 0.0316 µM, first compound 0.0316 µM",106%
same,"viability, T/C","second compound 0.0316 µM, first compound 0.1 µM",104%
same,"viability, T/C","second compound 0.0316 µM, first compound 0.316 µM",88.6%
same,"viability, T/C","second compound 0.0316 µM, first compound 1 µM",113%
same,"viability, T/C","second compound 0.0316 µM, first compound 3.16 µM",96.1%
same,"viability, T/C","second compound 0.0316 µM, first compound 10 µM",97.7%
same,"viability, T/C",[6],103%
same,"viability, T/C",[7],99.2%
same,"viability, T/C",[8],98%
same,"viability, T/C",[9],86.7%
same,"viability, T/C","second compound 0.1 µM, first compound 3.16 µM",78.3%
same,"viability, T/C","second compound 0.1 µM, first compound 10 µM",76.5%
same,"viability, T/C",[10],102%
same,"viability, T/C",[11],106%
same,"viability, T/C",[12],106%
same,"viability, T/C",[13],94.5%
same,"viability, T/C","second compound 0.316 µM, first compound 3.16 µM",81.2%
same,"viability, T/C","second compound 0.316 µM, first compound 10 µM",78%
same,"viability, T/C",[14],106%
same,"viability, T/C",[15],94.1%
same,"viability, T/C",[16],103%
same,"viability, T/C",[17],97.2%
same,"viability, T/C","second compound 1 µM, first compound 3.16 µM",82.6%
same,"viability, T/C","second compound 1 µM, first compound 10 µM",94.8%
Cn1ncnc1[C@H]1c2n[nH]c(=O)c3cc(F)cc(c23)N[C@@H]1c1ccc(F)cc1,"viability, T/C",compound 0.000316 µM,84.4% and 103% and 99.8%
same,"viability, T/C",compound 0.001 µM,98% and 95.3% and 90.9%
same,"viability, T/C",compound 0.00316 µM,78.3% and 81.4% and 77%
same,"viability, T/C",compound 0.01 µM,87.9% and 86.6% and 89.3%
same,"viability, T/C",compound 0.0316 µM,69.3% and 101% and 82.6%
same,"viability, T/C",compound 0.1 µM,72.6% and 93.3% and 85.5%
same,IC50,curve of compound,> 100 nM
